Results published in patent publication US7160874B2, “Phenylalanine derivatives” (Ajinomoto Co., Inc., priority 1999, dated 2007).

How the values were obtained:
integrin α4β1 = target: T1, integrin α4β1 (Homo sapiens, UniProt P05556+P13612); experiment: VCAM antagonist activity (VCAM-1/α4β1 binding assay); assay type: cell-based; details: Jurkat cells binding to VCAM-1; read-out: VCAM antagonistic activity (IC50) α4β1
T1 construct: cell strain Jurkat (ATCC TIB-152) of human T cells, known to express integrin α4β1; host or cells: Jurkat (human T cell line)
In short: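 Plates coated overnight at 4° C with recombinant human VCAM-1 (500 ng/ml, pH 9.6) and blocked. Calcein-AM-labelled Jurkat cells (α4β1) added with compound in HEPES/DMEM/0.1% BSA, 30 min at room temperature; unbound cells shaken off, bound fluorescence read at 485/535 nm. IC50 from binding relative to compound-free wells.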

integrin α4β7 = target: T2, integrin α4β7 (Homo sapiens, UniProt P13612+P26010); experiment: VCAM antagonistic activity (VCAM-1/α4β7 binding assay); assay type: cell-based; details: RPMI-8866 cells binding to VCAM-1; read-out: VCAM antagonistic activity (IC50) α4β7
T2 construct: lymphoma cell strain RPMI-8866 of human B cells, known to express integrin α4β7; endogenous in cells; host or cells: RPMI-8866 (human B lymphoma cell line)
T2 sequence (P13612 34-1032): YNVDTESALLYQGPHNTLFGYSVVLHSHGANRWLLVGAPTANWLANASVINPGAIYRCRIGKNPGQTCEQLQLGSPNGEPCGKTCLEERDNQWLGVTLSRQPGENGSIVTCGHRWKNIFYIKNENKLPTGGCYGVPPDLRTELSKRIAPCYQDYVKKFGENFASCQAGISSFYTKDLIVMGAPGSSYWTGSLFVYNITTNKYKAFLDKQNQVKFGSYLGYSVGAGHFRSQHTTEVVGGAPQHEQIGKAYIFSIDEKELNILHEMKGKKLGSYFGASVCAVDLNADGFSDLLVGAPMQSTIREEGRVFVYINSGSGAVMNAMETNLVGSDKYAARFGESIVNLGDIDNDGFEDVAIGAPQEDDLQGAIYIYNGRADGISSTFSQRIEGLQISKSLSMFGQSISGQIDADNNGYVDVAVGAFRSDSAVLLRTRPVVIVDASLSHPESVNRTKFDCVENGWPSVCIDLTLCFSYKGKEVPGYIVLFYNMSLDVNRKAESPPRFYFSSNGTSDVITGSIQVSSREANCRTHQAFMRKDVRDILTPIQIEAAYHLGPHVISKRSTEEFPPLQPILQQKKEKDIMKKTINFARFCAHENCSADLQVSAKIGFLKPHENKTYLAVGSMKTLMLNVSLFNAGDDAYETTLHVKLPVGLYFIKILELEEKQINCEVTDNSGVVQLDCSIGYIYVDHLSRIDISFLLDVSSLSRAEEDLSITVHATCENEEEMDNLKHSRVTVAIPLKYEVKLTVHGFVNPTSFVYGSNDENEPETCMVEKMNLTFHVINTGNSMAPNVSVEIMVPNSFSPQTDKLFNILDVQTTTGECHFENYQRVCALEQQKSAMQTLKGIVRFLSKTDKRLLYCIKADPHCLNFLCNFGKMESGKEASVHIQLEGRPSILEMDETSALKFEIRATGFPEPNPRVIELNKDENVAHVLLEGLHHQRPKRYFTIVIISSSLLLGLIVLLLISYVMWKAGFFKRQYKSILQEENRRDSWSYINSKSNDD
T2 sequence (P26010 20-798): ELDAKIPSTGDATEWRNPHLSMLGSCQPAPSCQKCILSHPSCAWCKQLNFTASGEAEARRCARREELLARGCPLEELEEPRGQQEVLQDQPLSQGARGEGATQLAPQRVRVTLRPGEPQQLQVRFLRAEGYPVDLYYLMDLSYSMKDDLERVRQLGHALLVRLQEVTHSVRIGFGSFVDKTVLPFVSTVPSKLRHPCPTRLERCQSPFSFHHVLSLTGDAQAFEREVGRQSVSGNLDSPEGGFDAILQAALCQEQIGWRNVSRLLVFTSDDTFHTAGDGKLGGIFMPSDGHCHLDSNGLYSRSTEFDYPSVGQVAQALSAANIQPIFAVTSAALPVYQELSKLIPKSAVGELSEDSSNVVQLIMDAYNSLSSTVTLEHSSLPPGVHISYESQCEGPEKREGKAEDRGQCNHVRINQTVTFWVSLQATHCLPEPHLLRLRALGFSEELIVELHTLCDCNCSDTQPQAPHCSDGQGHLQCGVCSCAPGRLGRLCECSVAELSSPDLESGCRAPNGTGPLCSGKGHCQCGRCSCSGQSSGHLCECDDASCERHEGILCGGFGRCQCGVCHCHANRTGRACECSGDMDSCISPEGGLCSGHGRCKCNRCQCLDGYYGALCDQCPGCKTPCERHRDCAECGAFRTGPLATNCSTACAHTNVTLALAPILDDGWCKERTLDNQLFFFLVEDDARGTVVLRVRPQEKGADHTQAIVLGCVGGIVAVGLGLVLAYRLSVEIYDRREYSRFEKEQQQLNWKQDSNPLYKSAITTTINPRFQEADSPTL
In short: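 Calcein-AM-labelled human B-lymphoma RPMI-8866 cells bound to plate-coated recombinant human VCAM-1 in HEPES/DMEM/0.1% BSA with 4 mM MnCl2, with compound, 30 min at room temperature. Unbound cells removed by shaking; bound-cell fluorescence (ex 485/em 535 nm) versus compound-free wells gave IC50, binned.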

T1 sequence (P05556 21-798, one chain of several): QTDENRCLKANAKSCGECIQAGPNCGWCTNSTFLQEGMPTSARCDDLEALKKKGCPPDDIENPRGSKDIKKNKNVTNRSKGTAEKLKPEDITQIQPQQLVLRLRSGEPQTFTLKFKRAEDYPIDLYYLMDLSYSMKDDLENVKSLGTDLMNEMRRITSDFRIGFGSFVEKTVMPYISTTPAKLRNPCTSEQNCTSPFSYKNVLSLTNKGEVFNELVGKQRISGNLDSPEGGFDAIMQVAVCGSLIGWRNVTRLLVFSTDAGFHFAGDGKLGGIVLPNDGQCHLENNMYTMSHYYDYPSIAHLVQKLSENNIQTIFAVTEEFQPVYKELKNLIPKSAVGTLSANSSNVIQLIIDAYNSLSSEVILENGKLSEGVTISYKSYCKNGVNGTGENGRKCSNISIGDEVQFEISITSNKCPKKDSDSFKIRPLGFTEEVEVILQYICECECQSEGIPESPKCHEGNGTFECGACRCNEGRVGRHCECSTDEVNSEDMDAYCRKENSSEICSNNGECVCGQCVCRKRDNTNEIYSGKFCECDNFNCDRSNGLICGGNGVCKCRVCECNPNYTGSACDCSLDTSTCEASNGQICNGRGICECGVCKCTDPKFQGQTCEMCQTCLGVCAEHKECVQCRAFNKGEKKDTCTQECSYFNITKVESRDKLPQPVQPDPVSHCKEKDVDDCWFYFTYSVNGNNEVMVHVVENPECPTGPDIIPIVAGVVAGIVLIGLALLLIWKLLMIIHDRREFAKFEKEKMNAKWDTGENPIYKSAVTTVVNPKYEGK

| IC50 (integrin α4β1) [nM] | IC50 (integrin α4β7) [nM] | Structure (SMILES) |
| --- | --- | --- |
| 20 to 100 | < 20 | CCC(CC)(C(=O)N[C@@H](Cc1ccc(NC(=O)c2c(F)cccc2C(F)(F)F)cc1)C(=O)O)C(=O)N1CCCC1 [Example 92, N-(2-pyrrolidine-1-ylcarbonyl-2-ethyl-butanoyl)-4-({[2-fluoro-6-(trifluoromethyl)phenyl]carbonyl}amino)-L-phenylalanine] |
| 100 to 2000 | < 20 | CCC(CC)(C(=O)N[C@@H](Cc1ccc(NC(=O)c2snnc2-c2ccccc2)cc1)C(=O)O)C(=O)N1CCCC1 [Example 93] |
| 20 to 100 | < 20 | CCC(CC)(C(=O)N[C@@H](Cc1ccc(NC(=O)c2nc(SC)ncc2Cl)cc1)C(=O)O)C(=O)N1CCCC1 [Example 94, N-[2-(pyrrolidine-1-ylcarbonyl)-2-ethyl-butanoyl]-4-({[5-chloro-2-(methylthio)pyrimidine-4-yl]carbonyl}amino)-L-phenylalanine] |
| 20 to 100 | < 20 | CCC(CC)(C(=O)N[C@@H](Cc1ccc(NC(=O)c2cc(F)c(F)cc2Cl)cc1)C(=O)O)C(=O)N1CCCC1 [Example 95] |
| 20 to 100 | < 20 | CCC(CC)(C(=O)N[C@@H](Cc1ccc(NC(=O)c2cc(Br)ccc2Cl)cc1)C(=O)O)C(=O)N1CCCC1 [Example 96] |
| 20 to 100 | < 20 | CCC(CC)(C(=O)N[C@@H](Cc1ccc(NC(=O)c2ccccc2[N+](=O)[O-])cc1)C(=O)O)C(=O)N1CCCC1 [Example 97] |
| 20 to 100 | < 20 | CCC(CC)(C(=O)N[C@@H](Cc1ccc(NC(=O)c2cc(Br)ccc2Br)cc1)C(=O)O)C(=O)N1CCCC1 [Example 98] |
| 20 to 100 | 20 to 100 | CCC(CC)(C(=O)N[C@@H](Cc1ccc(NC(=O)c2cc(OC)ccc2Br)cc1)C(=O)O)C(=O)N1CCCC1 [Example 99] |
| 100 to 2000 | 20 to 100 | CCC(CC)(C(=O)N[C@@H](Cc1ccc(-n2c(=O)c3ccccc3n(Cc3ccc4ccccc4c3)c2=O)cc1)C(=O)O)C(=O)N1CCCC1 [Example 100] |
| 100 to 2000 | 20 to 100 | CCC(CC)(C(=O)N[C@@H](Cc1ccc(-n2c(=O)c3ccccc3n(CC=Cc3ccccc3)c2=O)cc1)C(=O)O)C(=O)N1CCCC1 [Example 101] |
| 100 to 2000 | < 20 | C#CCn1c(=O)n(-c2ccc(C[C@H](NC(=O)C(CC)(CC)C(=O)N3CCCC3)C(=O)O)cc2)c(=O)c2ccccc21 [Example 102] |
| 100 to 2000 | 20 to 100 | CCC(CC)(C(=O)N[C@@H](Cc1ccc(-n2c(=O)c3ccccc3n(CC(=O)OC)c2=O)cc1)C(=O)O)C(=O)N1CCCC1 [Example 103] |
| 100 to 2000 | 20 to 100 | CCC(CC)(C(=O)N[C@@H](Cc1ccc(-c2c(OC)cccc2OC)cc1)C(=O)O)C(=O)N(C)C [Example 104] |
| 100 to 2000 | 20 to 100 | COc1cccc(OC)c1-c1ccc(C[C@H](NC(=O)C(C)(C)C(=O)N(C)C)C(=O)O)cc1 [Example 105, N-[3-(dimethylamino)-2,2-dimethyl-3-oxopropanoyl]-4-(2,6-dimethoxyphenyl)-L-phenylalanine] |
| 100 to 2000 | 100 to 2000 | O=CN1CCN(C(=O)C2(C(=O)N[C@@H](Cc3ccc(OCc4c(Cl)cccc4Cl)cc3)C(=O)O)CCC2)CC1 [Example 463] |
| 100 to 2000 | 20 to 100 | CCC(CC)(C(=O)N[C@@H](Cc1ccc(OCc2c(Cl)cccc2Cl)cc1)C(=O)O)C(=O)N1CCN(C(C)=O)CC1 [Example 464] |
| 20 to 100 | < 20 | CCC(CC)(C(=O)NC(Cc1ccc(OCc2c(Cl)cccc2Cl)cc1)C(=O)O)C(=O)N1CC2CC1CN2C(C)=O (centres unmarked) [Example 466] |
| 100 to 2000 | < 20 | O=C(O)[C@H](Cc1ccc(OCc2c(Cl)cccc2Cl)cc1)NC(=O)C1(C(=O)N2CC[C@@H](O)C2)CCOCC1 [Example 467] |
| 100 to 2000 | < 20 | CN(C)C(=O)C1(C(=O)N[C@@H](Cc2ccc(OCc3c(Cl)cccc3Cl)cc2)C(=O)O)CCOCC1 [Example 468] |
